In publication PMC10008561 (Nature Communications, 2023):
Where “and” joins values, the source holds several entries; their conditions need not be identical. Equal values may be shown once.

How the values were obtained:
[1] = system: KOR; assay type: cell-based, human
[2] = biological target: T1, human KOR (Gi1) (Homo sapiens, UniProt P41145); assay: cell-based
T1 construct: expressed in transfected cells; host or cells: HEK293T

[3] = biological target: T2, human KOR (GoB) (Homo sapiens, UniProt P41145, T94V); assay: cell-based; conditions: HEK-293T
T2 construct: expressed in transfected cells; host or cells: HEK293T

[4] = biological target: T3, human KOR (GoB) (Homo sapiens, UniProt P41145, G319L); assay: cell-based; conditions: HEK-293T
T3 construct: expressed in transfected cells; host or cells: HEK293T

[5] = biological target: T4, human KOR (GoB) (Homo sapiens, UniProt P41145, Q115N); assay: cell-based; conditions: HEK-293T
T4 construct: expressed in transfected cells; host or cells: HEK293T

[6] = biological target: T5, human KOR (GoB) (Homo sapiens, UniProt P41145, F114L); assay: cell-based; conditions: HEK-293T
T5 construct: expressed in transfected cells; host or cells: HEK293T

[7] = biological target: T6, human KOR (GoB) (Homo sapiens, UniProt P41145, K227A); assay: cell-based; conditions: HEK-293T
T6 construct: expressed in transfected cells; host or cells: HEK293T

[8] = biological target: T7, human KOR (GoB) (Homo sapiens, UniProt P41145, R274A); assay: cell-based; conditions: HEK-293T
T7 construct: expressed in transfected cells; host or cells: HEK293T

[9] = biological target: T8, human KOR (GoB) (Homo sapiens, UniProt P41145, N141A); assay: cell-based; conditions: HEK-293T
T8 construct: expressed in transfected cells; host or cells: HEK293T

[10] = biological target: T9, human KOR (GoB) (Homo sapiens, UniProt P41145, Y320L); assay: cell-based; conditions: HEK-293T
T9 construct: expressed in transfected cells; host or cells: HEK293T

[11] = biological target: T10, human KOR (GoB) (Homo sapiens, UniProt P41145, D334A); assay: cell-based; conditions: HEK-293T
T10 construct: expressed in transfected cells; host or cells: HEK293T

[12] = biological target: T11, human KOR (GoB) (Homo sapiens, UniProt P41145, K200A); assay: cell-based; conditions: HEK-293T
T11 construct: expressed in transfected cells; host or cells: HEK293T

[13] = biological target: T12, human KOR (GoB) (Homo sapiens, UniProt P41145, F283A); assay: cell-based; conditions: HEK-293T
T12 construct: expressed in transfected cells; host or cells: HEK293T

[14] = biological target: T13, human KOR (GoB) (Homo sapiens, UniProt P41145, E297A); assay: cell-based; conditions: HEK-293T
T13 construct: expressed in transfected cells; host or cells: HEK293T

[15] = biological target: T14, human KOR (GoB) (Homo sapiens, UniProt P41145, D105A); assay: cell-based; conditions: HEK-293T
T14 construct: expressed in transfected cells; host or cells: HEK293T

[16] = biological target: T15, human KOR (GoB) (Homo sapiens, UniProt P41145, R257A); assay: cell-based; conditions: HEK-293T
T15 construct: expressed in transfected cells; host or cells: HEK293T

[17] = biological target: T16, human KOR (GoB) (Homo sapiens, UniProt P41145, D155A); assay: cell-based; conditions: HEK-293T
T16 construct: expressed in transfected cells; host or cells: HEK293T

[18] = biological target: T17, human KOR (GoB) (Homo sapiens, UniProt P41145, N326A); assay: cell-based; conditions: HEK-293T
T17 construct: expressed in transfected cells; host or cells: HEK293T

[19] = biological target: T18, human KOR (GoB) (Homo sapiens, UniProt P41145); assay: cell-based
T18 construct: expressed in transfected cells; host or cells: HEK293T

[20] = biological target: T19, human KOR (GoB) (Homo sapiens, UniProt P41145, R170A); assay: cell-based; conditions: HEK-293T
T19 construct: expressed in transfected cells; host or cells: HEK293T

[21] = biological target: T20, human KOR (GoB) (Homo sapiens, UniProt P41145, L253A); assay: cell-based; conditions: HEK-293T
T20 construct: expressed in transfected cells; host or cells: HEK293T

[22] = biological target: T21, human KOR (GoB) (Homo sapiens, UniProt P41145, N322A); assay: cell-based; conditions: HEK-293T
T21 construct: expressed in transfected cells; host or cells: HEK293T

[23] = biological target: T22, human KOR (Gi2) (Homo sapiens, UniProt P41145, K200A); assay: cell-based
T22 construct: expressed in transfected cells; host or cells: HEK293T

[24] = biological target: T23, human KOR (Gi2) (Homo sapiens, UniProt P41145, K227A); assay: cell-based
T23 construct: expressed in transfected cells; host or cells: HEK293T

[25] = biological target: T24, human KOR (Gi2) (Homo sapiens, UniProt P41145, E297A); assay: cell-based
T24 construct: expressed in transfected cells; host or cells: HEK293T

[26] = biological target: T25, human KOR (Gi2) (Homo sapiens, UniProt P41145, N326A); assay: cell-based
T25 construct: expressed in transfected cells; host or cells: HEK293T

[27] = biological target: T26, human KOR (Gi2) (Homo sapiens, UniProt P41145, D105A); assay: cell-based; conditions: HEK-293T
T26 construct: expressed in transfected cells; host or cells: HEK293T

[28] = biological target: T27, human KOR (Gi2) (Homo sapiens, UniProt P41145, D334A); assay: cell-based
T27 construct: expressed in transfected cells; host or cells: HEK293T

[29] = biological target: T28, human KOR (Gi2) (Homo sapiens, UniProt P41145, Y139L); assay: cell-based
T28 construct: expressed in transfected cells; host or cells: HEK293T

[30] = biological target: T29, human KOR (Gi2) (Homo sapiens, UniProt P41145, N141A); assay: cell-based
T29 construct: expressed in transfected cells; host or cells: HEK293T

[31] = biological target: T30, human KOR (Gi2) (Homo sapiens, UniProt P41145, N322A); assay: cell-based
T30 construct: expressed in transfected cells; host or cells: HEK293T

[32] = biological target: T31, human KOR (Gi2) (Homo sapiens, UniProt P41145, D155A); assay: cell-based
T31 construct: expressed in transfected cells; host or cells: HEK293T

[33] = biological target: T32, human KOR (Gi2) (Homo sapiens, UniProt P41145, R271A); assay: cell-based
T32 construct: expressed in transfected cells; host or cells: HEK293T

[34] = biological target: T33, human KOR (Gi2) (Homo sapiens, UniProt P41145, R170A); assay: cell-based; conditions: HEK-293T
T33 construct: expressed in transfected cells; host or cells: HEK293T

[35] = biological target: T34, human KOR (Gi2) (Homo sapiens, UniProt P41145, L253A); assay: cell-based
T34 construct: expressed in transfected cells; host or cells: HEK293T

[36] = biological target: T35, human KOR (Gi2) (Homo sapiens, UniProt P41145, D266A); assay: cell-based
T35 construct: expressed in transfected cells; host or cells: HEK293T

[37] = biological target: T36, human KOR (Gi2) (Homo sapiens, UniProt P41145, R257A); assay: cell-based
T36 construct: expressed in transfected cells; host or cells: HEK293T
T36 sequence (P41145 whole entry R257A): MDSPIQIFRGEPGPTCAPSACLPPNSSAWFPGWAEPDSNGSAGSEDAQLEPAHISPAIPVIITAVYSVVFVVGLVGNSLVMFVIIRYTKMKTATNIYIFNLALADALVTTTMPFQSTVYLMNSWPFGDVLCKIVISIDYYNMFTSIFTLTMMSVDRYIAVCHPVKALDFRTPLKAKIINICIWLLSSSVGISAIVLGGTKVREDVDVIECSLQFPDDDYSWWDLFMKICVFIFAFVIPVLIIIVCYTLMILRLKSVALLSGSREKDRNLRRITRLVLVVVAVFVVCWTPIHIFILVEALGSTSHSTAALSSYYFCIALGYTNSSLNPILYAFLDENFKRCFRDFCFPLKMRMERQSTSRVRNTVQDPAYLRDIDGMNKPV

T1 sequence (P41145 whole entry): as the sequence (P41145 whole entry R257A) above, with A257R counted along it
T34 sequence (P41145 whole entry L253A): as the sequence (P41145 whole entry R257A) above, with L253A, A257R counted along it
T31 sequence (P41145 whole entry D155A): as the sequence (P41145 whole entry R257A) above, with D155A, A257R counted along it
T32 sequence (P41145 whole entry R271A): as the sequence (P41145 whole entry R257A) above, with A257R, R271A counted along it
T35 sequence (P41145 whole entry D266A): as the sequence (P41145 whole entry R257A) above, with A257R, D266A counted along it
T30 sequence (P41145 whole entry N322A): as the sequence (P41145 whole entry R257A) above, with A257R, N322A counted along it
T25 sequence (P41145 whole entry N326A): as the sequence (P41145 whole entry R257A) above, with A257R, N326A counted along it
T22 sequence (P41145 whole entry K200A): as the sequence (P41145 whole entry R257A) above, with K200A, A257R counted along it
T18 sequence (P41145 whole entry): as the sequence (P41145 whole entry R257A) above, with A257R counted along it
T29 sequence (P41145 whole entry N141A): as the sequence (P41145 whole entry R257A) above, with N141A, A257R counted along it
T23 sequence (P41145 whole entry K227A): as the sequence (P41145 whole entry R257A) above, with K227A, A257R counted along it
T27 sequence (P41145 whole entry D334A): as the sequence (P41145 whole entry R257A) above, with A257R, D334A counted along it
T24 sequence (P41145 whole entry E297A): as the sequence (P41145 whole entry R257A) above, with A257R, E297A counted along it
T28 sequence (P41145 whole entry Y139L): as the sequence (P41145 whole entry R257A) above, with Y139L, A257R counted along it
T4 sequence (P41145 whole entry Q115N): as the sequence (P41145 whole entry R257A) above, with Q115N, A257R counted along it
T3 sequence (P41145 whole entry G319L): as the sequence (P41145 whole entry R257A) above, with A257R, G319L counted along it
T2 sequence (P41145 whole entry T94V): as the sequence (P41145 whole entry R257A) above, with T94V, A257R counted along it
T12 sequence (P41145 whole entry F283A): as the sequence (P41145 whole entry R257A) above, with A257R, F283A counted along it
T21 sequence (P41145 whole entry N322A): as the sequence (P41145 whole entry R257A) above, with A257R, N322A counted along it
T17 sequence (P41145 whole entry N326A): as the sequence (P41145 whole entry R257A) above, with A257R, N326A counted along it
T11 sequence (P41145 whole entry K200A): as the sequence (P41145 whole entry R257A) above, with K200A, A257R counted along it
T15 sequence (P41145 whole entry R257A): as the sequence (P41145 whole entry R257A) above
T8 sequence (P41145 whole entry N141A): as the sequence (P41145 whole entry R257A) above, with N141A, A257R counted along it
T20 sequence (P41145 whole entry L253A): as the sequence (P41145 whole entry R257A) above, with L253A, A257R counted along it
T6 sequence (P41145 whole entry K227A): as the sequence (P41145 whole entry R257A) above, with K227A, A257R counted along it
T9 sequence (P41145 whole entry Y320L): as the sequence (P41145 whole entry R257A) above, with A257R, Y320L counted along it
T14 sequence (P41145 whole entry D105A): as the sequence (P41145 whole entry R257A) above, with D105A, A257R counted along it
T26 sequence (P41145 whole entry D105A): as the sequence (P41145 whole entry R257A) above, with D105A, A257R counted along it
T10 sequence (P41145 whole entry D334A): as the sequence (P41145 whole entry R257A) above, with A257R, D334A counted along it
T33 sequence (P41145 whole entry R170A): as the sequence (P41145 whole entry R257A) above, with R170A, A257R counted along it
T19 sequence (P41145 whole entry R170A): as the sequence (P41145 whole entry R257A) above, with R170A, A257R counted along it
T7 sequence (P41145 whole entry R274A): as the sequence (P41145 whole entry R257A) above, with A257R, R274A counted along it
T13 sequence (P41145 whole entry E297A): as the sequence (P41145 whole entry R257A) above, with A257R, E297A counted along it
T5 sequence (P41145 whole entry F114L): as the sequence (P41145 whole entry R257A) above, with F114L, A257R counted along it
T16 sequence (P41145 whole entry D155A): as the sequence (P41145 whole entry R257A) above, with D155A, A257R counted along it

For `CN(C(=O)/C=C/c1ccoc1)[C@@H]1CC[C@@]2(O)[C@H]3Cc4ccc(O)c5c4[C@@]2(CCN3CC2CC2)[C@H]1O5` [Nalfurafine, nalfurafine], the “ΔΔLog τ/KA (95% confidence interval)” value [1] was 0.78 (0.65 to 0.91), the Emax% [2] was 101.1% and 100% and the Emax ([2]; HEK-293T) was 85 ± 7%. For the same molecule, the Emax [3] was 100%, the Emax [4] was 108% and the Emax [5] was 80.5%. For the same molecule, the Emax [6] was 77.5%, the Emax [7] was 94.3% and the Emax [8] was 101%. For the same molecule, the Emax [9] was 98.7%, the Emax [10] was 76% and the Emax [11] was 91.1%. It also gave an Emax [12] of 98.3%, an Emax [13] of 91% and an Emax [14] of 103%. The Emax [15] was 91%, the Emax [16] was 99.6% and the Emax [17] was 99%. The Emax [18] was 93.6%, the Emax% [19] was 99.55% and the Emax ([19]; HEK-293T) was 99.8%. It also gave an Emax [20] of 87.8%, an Emax [21] of 107% and an Emax [22] of 87.1%. The “FC vs wild type” value [23] was 2, the Emax ([23]; HEK-293T) was 104% and the “FC vs wild type” value [24] was 1. The Emax ([24]; HEK-293T) was 101%, the “FC vs wild type” value [25] was 2 and the Emax ([25]; HEK-293T) was 106%. The “FC vs wild type” value [26] was 3, the Emax ([26]; HEK-293T) was 101% and the Emax [27] was 96.1%. For the same molecule, the “FC vs wild type” value [28] was 269, the Emax ([28]; HEK-293T) was 86.1% and the “FC vs wild type” value [29] was 1. For the same molecule, the “FC vs wild type” value [30] was 7, the Emax ([30]; HEK-293T) was 103% and the “FC vs wild type” value [31] was 178. For the same molecule, the Emax ([31]; HEK-293T) was 77.2%, the “FC vs wild type” value [32] was 20 and < 10 and the Emax ([32]; HEK-293T) was 82%. For the same molecule, the “FC vs wild type” value [33] was 112, the Emax ([33]; HEK-293T) was 106% and the Emax [34] was 57.6%. For the same molecule, the “FC vs wild type” value [35] was 87 and 100, the Emax ([35]; HEK-293T) was 105% and the “FC vs wild type” value [36] was 110. The Emax ([36]; HEK-293T) was 107%, the “FC vs wild type” value [37] was 100 and the Emax ([37]; HEK-293T) was 104%.
